According to paper PMC6787163, “Systematic Dual Targeting of Dendritic Cell C-Type Lectin Receptor DC-SIGN and TLR7 Using a Trifunctional Mannosylated Antigen” (Frontiers in Chemistry, 2019):

Experiments:
DC-SIGN on moDC = assay: Binding of biotinylated mannoside library to moDCs by flow cytometry; assay type: cell-based, human; conditions: 10 μM biotinylated cluster, 30 min at 4°C, streptavidin staining
Experimental: Next, we assessed the binding of our clusters to cellular DC-SIGN using moDCs (Figure 3B, Supplementary Figure 1B). To this end, binding of the clusters a1–a6, b1–b6, c1–c6, d1–d6, and e1–e6, decorated with a biotin handle, was determined by flow cytometry. Clusters were bound to moDCs for 30 min at 4°C. By staining using fluorophore-conjugated streptavidin and washing at 4°C, the bound clusters could be quantified by flow cytometry. […] In control experiments ligand binding to DC-SIGN was inhibited using a blocking anti-DC-SIGN antibody (Supplementary Figure 1C).
Approximately 10^5 day 5 moDCs were washed and resuspended in 100 μL culture medium (pre-cooled to 4°C). 20 μg/mL AZN-D1 (anti-DC-SIGN, in house Geijtenbeek et al., [2002]) or purified mouse anti-human CD206 antibody (Clone 19.2, BD Bioscience) was added to the moDCs and pre-incubated for 45 min on ice. Subsequently, 10 μM of the biotinylated mannoside clusters or 1 μg/mL of Lewis^Y-conjugated polyacrylamide (positive control) was added, and incubated for 30 min at 4°C. Cells were then washed with pre-cooled PBS (4°C), and stained with Alexa647-labeled streptavidin (Invitrogen^TM) in PBS supplemented with 0.5% BSA and 0.02% NaN3 (PBA) for 30 min at 4°C. Upon washing in ice-cold PBA and fixation in PBS with 0.5% PFA, the fluorescence was measured by flow cytometry (CyAn™ ADP with Summit™ Software), and further analyzed using FlowJo v10.

DC-SIGN S-ECD = biological target: T1, DC-SIGN S-ECD (Homo sapiens, UniProt Q9NNX6); assay: SPR direct interaction assay on oriented DC-SIGN S-ECD surface; assay type: binding; conditions: SPR direct interaction, oriented tetrameric DC-SIGN ECD surface, apparent Kd; read-out: Kdapp
T1 construct: The ECD of DC-SIGN (residues 66–404) was overexpressed and purified as previously described; made in house
T1 sequence (Q9NNX6 66-404): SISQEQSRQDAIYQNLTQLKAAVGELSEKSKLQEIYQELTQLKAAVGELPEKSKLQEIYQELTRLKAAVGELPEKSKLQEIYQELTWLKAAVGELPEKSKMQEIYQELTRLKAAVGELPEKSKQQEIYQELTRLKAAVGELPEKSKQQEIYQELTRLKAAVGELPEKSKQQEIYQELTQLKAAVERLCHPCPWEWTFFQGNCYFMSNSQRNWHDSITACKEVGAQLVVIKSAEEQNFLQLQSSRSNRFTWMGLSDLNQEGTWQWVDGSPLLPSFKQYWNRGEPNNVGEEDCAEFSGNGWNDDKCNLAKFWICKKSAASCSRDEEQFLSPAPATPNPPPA
Experimental: (§1) The affinity of the clusters for the extracellular domain (ECD) of the DC-SIGN receptor (DC-SIGN ECD) was estimated via surface plasmon resonance (SPR) assays (Tabarani et al., [2009]). The apparent Kd was calculated in direct interaction mode using a surface functionalized in an oriented manner with DC-SIGN ECD. In this assay, tetrameric DC-SIGN ECD is attached to the surface of the sensor chip via the N-terminus of its neck oligomerization domain, thus presenting its four carbohydrate recognition domains toward the solvent, realistically mimicking the presentation of the receptor on cell surface (Porkolab et al., [2019]). For some of the low affinity ligands, in the mM range, it was not possible to determine their affinity with this assay, and therefore a competition experiment was performed providing IC50 values (Timpano et al., [2008]) (Figure 3A). […] When comparing equivalent clusters, the α1,2-di-mannoside (B series) bound with the highest affinity (Figure 3A). […] A potential explanation for this effect could be that the spacing of clusters is more important for the larger tri-mannosides.
The direct interaction experiments were executed on a T200 Biacore with a CM3 series S sensor chip. Contrary to the competition assay described above, in this test, DC-SIGN ECD used harbors a StreptagII in its N-terminus (DC-SIGN S-ECD) to allow its capture and functionalization onto the surface in an oriented manner. Flow cells were functionalized as previously described (Porkolab et al., [2019]). Briefly, after EDC/NHS activation, flow cells were functionalized with streptactin protein in a first step. Flow cell 1 was used as control, while other flow cells were, in a second round of activation, functionalized with 100 μg/mL of a DC-SIGN S-ECD up to a final density ranging between 2,500 and 3,000 RU, via tag specific capture and linkage by amine coupling chemistry simultaneously. The compounds were injected in running buffer of 25 mM Tris pH 8, 150 mM NaCl, 4 mM CaCl2, 0.05% Tween 20 onto the surface at increasing concentrations with a flow rate of 30 μL/min. The ligand titration led to the determination of an apparent Kd value. The data was analyzed in BIAcore BIAevaluation software for direct interaction 1:1 calculation assuming that the Kd will reflect the affinity of the ligands (glycoclusters) for the DC-SIGN oriented surface used as a whole.

moDCs = assay: Internalization of biotinylated hexavalent clusters by moDCs (flow cytometry); assay type: cell-based, human
Experimental: For the internalization, the moDCs were incubated with clusters b6, c6, d6, and e6 for 1 h at 4°C, where after unbound ligands were washed away with ice-cold medium. Warm medium was added to the moDCs, and samples were taken at the indicated time points and put on ice. Upon staining the moDCs with fluorophore-conjugated streptavidin, we could measure the signal loss of the membrane via flow cytometry. To exclude ligand-receptor dissociation before internalization, the moDCs were fixed under gentle conditions, hereby inhibiting receptor-mediated endocytosis. On fixed moDCs the clusters remained at the surface, as no signal loss could be detected (Supplementary Figure 1D). […] The di-mannoside clusters (b6, c6, and d6) were internalized relatively fast, with a 50% uptake within 5 min (Figure 5B). The tri-mannoside cluster e6 however remained longer at the membrane surface and only a 25% uptake was seen after 30 min. Similar results were seen using a pH-sensitive fluorophore. In acidic environments, such as the endosomes and lysosomes, the fluorescence of this dye increases. Pre-complexed clusters mirrored the accelerated uptake of the di-mannoside clusters over the e6 cluster (Supplementary Figure 1E). Although the DC-SIGN mediated uptake mechanism is known (Cambi et al., [2009]), the initiation trigger for endocytosis upon DC-SIGN-ligand binding remains unclear. Recognition of the di-mannoside clusters could induce signaling leading to accelerated uptake, whereas the tri-mannoside cluster could trigger a different signaling pathway. Nonetheless, the clusters harboring the smaller mannosides are preferred. Although the binding affinity of the clusters ranged from 0.9 to 6.6 μM, the di-mannosides induce more rapid DC-SIGN internalization over the tri-mannosides, and can thus increase intracellular peptide concentrations more efficiently for further antigen processing and presentation.
Immature day 5 moDCs were harvested and washed with cold HBSS (Thermo Fischer), after which half of the moDCs were gently fixed for 20 min at RT with 1% PFA in PBS. Afterwards, 20 μM of the different biotinylated mannose-clusters in cold HBSS were added. The moDCs were incubated for 1 h on ice, and washed in cold HBSS. Subsequently, warm HBSS was added to the cells, and cells were incubated at 37°C in a shaking heating block. At the indicated time points, a sample of the cells was taken and put on ice. After the last time point, the cells were stained with Streptavidin-Alexa647 (Thermo Fisher), measured using flow cytometry (CyAn™ ADP with Summit™ Software), and further analyzed using FlowJo v10. The same procedure was used for internalization with pHrodo^TM Red Avidin (Thermo Fischer). The different biotinylated mannose-clusters were however incubated with pHrodo-Avidin (ratio 2:1) for 15 min at 37°C, prior to moDC exposure. The fluorescence upon internalization was measured using flow cytometry (BD LSRFortessa™ X-20 with FACSDiva Software), and further analyzed using FlowJo v10.

DC-SIGN ECD = biological target: T2, DC-SIGN ECD (Homo sapiens, UniProt Q9NNX6); assay: SPR competition (inhibition) assay, DC-SIGN ECD on BSA-mannotriose surface; assay type: binding; conditions: DC-SIGN ECD 20 μM
T2 construct: The ECD of DC-SIGN (residues 66–404) was overexpressed and purified as previously described; made in house
T2 sequence (Q9NNX6 66-404): T1 sequence (Q9NNX6 66-404)
Experimental: as §1
The ECD of DC-SIGN (residues 66–404) was overexpressed and purified as previously described (Tabarani et al., [2009]). The DC-SIGN S-ECD construct used for direct interaction experiment (see below) has been overexpressed and purified as described elsewhere (Porkolab et al., [2019]). The SPR competition experiments were performed on a BIAcore T200 using a CM3 series S sensor chip. Flow cells were activated as previously described (Halary et al., [2002]). Flow cell 1 was functionalized with BSA, blocked with ethanolamine and subsequently used as a control surface. Flow cells 2 and 3 were treated with BSA-Man α1-3[Manα1-6]Man (Dextra) (60 μg/mL) in 10 mM NaOAc pH 4 and blocked with ethanolamine. The final densities on flow cells 2 and 3 were about 2,100 RU. The affinities of the various compounds for DC-SIGN ECD were evaluated via an established inhibition assay (Andreini et al., [2011]) in which DCSIGN ECD was injected at 20 μM alone or in the presence of increasing concentration of inhibitors. Injections were performed at 5 μL/min using 25 mM Tris-HCl pH 8, 150 mM NaCl, 4 mM CaCl2, 0.05% P20 surfactant as running buffer. The surface was regenerated by the injection of 50 mM EDTA. The data was analyzed in BIAcore BIAevaluation software using four parameter equation.

binding to DC-SIGN on moDC (DC-SIGN on moDC)	Kd (DC-SIGN S-ECD)	IC50 (DC-SIGN ECD)	Compound	internalization by moDCs (loss of surface streptavidin signal) (moDCs; 20 μM cluster, live moDCs)	internalization by moDCs (pHrodo-avidin fluorescence increase) (moDCs; clusters pre-complexed with pH-sensitive dye)	uptake by immature moDCs (moDCs; within 5 min at 37°C, 20 μM cluster)
significantly higher binding	7.82 ± 0.44 µM	–	CC(=O)N[C@@H](CCCCn1cc(CO[C@H]2O[C@H](CO)[C@@H](O)[C@H](O)[C@@H]2O)nn1)C(=O)N[C@@H](CCCCn1cc(CO[C@H]2O[C@H](CO)[C@@H](O)[C@H](O)[C@@H]2O)nn1)C(=O)N[C@@H](CCCCn1cc(CO[C@H]2O[C@H](CO)[C@@H](O)[C@H](O)[C@@H]2O)nn1)C(=O)N[C@@H](CCCCn1cc(CO[C@H]2O[C@H](CO)[C@@H](O)[C@H](O)[C@@H]2O)nn1)C(=O)N[C@@H](CCCCn1cc(CO[C@H]2O[C@H](CO)[C@@H](O)[C@H](O)[C@@H]2O)nn1)C(=O)N[C@@H](CCCCn1cc(CO[C@H]2O[C@H](CO)[C@@H](O)[C@H](O)[C@@H]2O)nn1)C(=O)NCC(=O)N[C@@H](CCCCN)C(N)=O [A6]	–	–	–
no increase in binding	6.56 ± 1.2 µM	–	CC(=O)N[C@@H](CCCCn1cc(CO[C@H]2O[C@H](CO[C@H]3O[C@H](CO)[C@@H](O)[C@H](O)[C@@H]3O)[C@@H](O)[C@H](O)[C@@H]2O)nn1)C(=O)N[C@@H](CCCCn1cc(CO[C@H]2O[C@H](CO[C@H]3O[C@H](CO)[C@@H](O)[C@H](O)[C@@H]3O)[C@@H](O)[C@H](O)[C@@H]2O)nn1)C(=O)N[C@@H](CCCCn1cc(CO[C@H]2O[C@H](CO[C@H]3O[C@H](CO)[C@@H](O)[C@H](O)[C@@H]3O)[C@@H](O)[C@H](O)[C@@H]2O)nn1)C(=O)N[C@@H](CCCCn1cc(CO[C@H]2O[C@H](CO[C@H]3O[C@H](CO)[C@@H](O)[C@H](O)[C@@H]3O)[C@@H](O)[C@H](O)[C@@H]2O)nn1)C(=O)N[C@@H](CCCCn1cc(CO[C@H]2O[C@H](CO[C@H]3O[C@H](CO)[C@@H](O)[C@H](O)[C@@H]3O)[C@@H](O)[C@H](O)[C@@H]2O)nn1)C(=O)N[C@@H](CCCCn1cc(CO[C@H]2O[C@H](CO[C@H]3O[C@H](CO)[C@@H](O)[C@H](O)[C@@H]3O)[C@@H](O)[C@H](O)[C@@H]2O)nn1)C(=O)NCC(=O)N[C@@H](CCCCN)C(N)=O [D6]	rapidly internalized	internalized rapidly	50%
–	–	306 ± 4.75 µM	CC(=O)N[C@@H](CCCCn1cc(CO[C@H]2O[C@H](CO[C@H]3O[C@H](CO)[C@@H](O)[C@H](O)[C@@H]3O)[C@@H](O)[C@H](O[C@H]3O[C@H](CO)[C@@H](O)[C@H](O)[C@@H]3O)[C@@H]2O)nn1)C(=O)NCC(=O)N[C@@H](CCCCn1cc(CO[C@H]2O[C@H](CO[C@H]3O[C@H](CO)[C@@H](O)[C@H](O)[C@@H]3O)[C@@H](O)[C@H](O[C@H]3O[C@H](CO)[C@@H](O)[C@H](O)[C@@H]3O)[C@@H]2O)nn1)C(=O)NCC(=O)N[C@@H](CCCCN)C(N)=O [E2]	–	–	–
